Values quoted from earlier work, collected in patent US20250186473A1, “Compositions and Methods for Treating Kidney Disease” (Neukidney Incorporated, priority 2023, published 2025).

Tested on: CKD in rat models
Details: oral supplementation, BUN, serum creatinine, fibrosis

SMILES: NC(=O)c1cccnc1 [Nicotinamide]
- effect on progression of CKD: attenuated progression of CKD
